Experimental data reported in patent publication US20220378688A1, “Moisturizing or anti-atopic composition containing fatty acids or fatty acid derivatives” (DAEBONG LS, LTD, priority 2019, published 2022).
“And” between values parts separate entries of the source, which are not always exact repeats. Equal values may be shown once.

Legend:
Assay type in all cases: cell-based, human
[1] = test system: hyaluronic acid; assay: Hyaluronic acid production in HaCaT cells (ELISA); conditions: 24 hours, untreated = 100
Experimental: HaCaT cells were aliquoted in a 24-well plate at 1.0×10^5 cells/mL and cultured at 37° C., 5% CO2 conditions for 18 hours. It was replaced with a serum-free DMEM medium, and the samples in Table 2 were treated and cultured for 24 hours. After that, the culture medium was removed, centrifuged at 15,000 rpm for 5 minutes, and the supernatant was removed and stored frozen (−20° C.) until quantification. As a control group, a sample treated with retinoic acid (RA) at a concentration of 10 μM was used. Enzyme-Linked Immunosorbent Assay (ELISA) was performed using a hyaluronic acid ELISA kit (Elabscience Biotechnology Co., Ltd) and the method provided by the manufacturer.

[2] = test system: HaCaT cells; assay: Cytotoxicity assessment, EZ-Cytox assay, HaCaT cell growth rate; conditions: untreated = 100
Experimental: HaCaT cells, which are human epidermal keratinocytes, were distributed from Dr. C. G. Hyun (Jeju National University, Korea) and Dulbecco's Modified Eagle's Medium (DMEM) medium containing 100 units/ml of penicillin-streptomycin and 10% by volume of fetal bovine serum (FBS) was used and cultured at 37° C. and 5% CO2 incubator. Subculture was performed at intervals of 3 to 4 days.
The EZ-cytox assay is a representative method for measuring cell viability using the principle that water solution tetrazolium salt (WST) reacts with dehydrogenase of living cells to generate orange water-soluble formazan.
HaCaT cells were aliquoted in a 96-well plate at 1.0×10^4 cells/mL using DMEM medium supplemented with 10% by volume of FBS to check cytotoxicity and then cultured at 37° C., 5% CO2 condition for 18 hours. The cultured HaCaT cells were exchanged with serum-free DMEM to treat the extract to be evaluated. After that, EZ-cytox was added to each well and reacted for 30 minutes at 37° C. and 5% CO2, and absorbance was measured at 450 nm using a microplate reader. The average absorbance value for each sample group was obtained, and the cell viability was evaluated by comparing it with the absorbance value of the control group.

[3] = test system: thymus and activation regulated chemokine (TARC); assay: TARC production inhibitory activity in HaCaT cells (ELISA); conditions: IFN (30 ng/ml) + TNF (30 ng/ml) stimulated = 100
Experimental: In order to confirm the atopic treatment effect on the carrot stems and leaves extract according to the present disclosure, atopic thymus and activation regulated chemokine (TARC) was analyzed.
HaCaT cells were aliquoted in a 24-well plate at 1.5×10^5 cells/mL and cultured at 37° C., 5% CO2 conditions for 18 hours. […] Then, the atopic chemokine production content of the supernatant obtained by centrifugation of the culture medium (12,000 rpm, 3 min) was measured. All samples were stored frozen (−20° C.) until quantification. For TARC content, a human enzyme-linked immunosorbent assay (ELISA) kit (R&D Systems Inc., Minneapolis, Minn., USA) was used, and the r^2 value of the standard curve for the standard was 0.99 or more.

[4] = test system: Filaggrin; assay: Skin barrier strengthening: filaggrin production in HaCaT cells (ELISA); conditions: 10 μM, 24 hours, untreated = 100
Experimental: HaCaT cells were aliquoted in a 24-well plate at 1.0×10^5 cells/mL and cultured at 37° C., 5% CO2 conditions for 18 hours. It was exchanged with serum-free DMEM, and the carrot stems and leaves extracts and roots extracts of the samples in Table 2 were treated and cultured for 24 hours. After removing the culture medium and washing with PBS for each group, PBS is containing no drug that may affect protein quantification was treated. The protein was collected after lysing the cells by repeating low-temperature and room-temperature incubation. As a control group, a sample treated with retinoic acid (RA) at a concentration of 10 μM was used. Quantification was performed using the Filaggrin-ELISA kit (Elabscience Biotechnology Co., Ltd) and was performed by the method provided by the manufacturer.

Compound	HA production (%) ([1]; 25 μM)	HA production (%) ([1]; 50 μM)	HA production (%) ([1]; 100 μM)	HaCaT cell growth rate (%) ([2]; 12.5 μM)	HaCaT cell growth rate (%) ([2]; 25 μM)	HaCaT cell growth rate (%) ([2]; 50 μM)	HaCaT cell growth rate (%) ([2]; 100 μM)	TARC production (%) ([3]; 12.5 μM)	TARC production (%) ([3]; 25 μM)	TARC production (%) ([3]; 50 μM)	FLG production (%) [4] [%]	HA production (%) ([1]; 10 μM)	HaCaT cell growth rate (%) ([2]; 10 μM)
CCCCC/C=C\C/C=C\CCCCCCCC(=O)OC[C@@H](O)CO (racemic) [Monolinolein]	102.7 ± 0.14	113.7 ± 0.14	114.4 ± 0.05	106.0 ± 2.6	102.2 ± 1.0	101.5 ± 1.7	122.6 ± 2.1	75.2 ± 0.07	37.7 ± 1.59	30.9 ± 1.97			
CCCCC/C=C\C/C=C\CCCCCCCC(=O)OCC [Ethyl linoleate, ethyl linoleate]	92.7 ± 0.27	85.5 ± 0.27	89.5 ± 0.07	92.5 ± 3.0	92.3 ± 2.0	88.9 ± 2.3	94.1 ± 3.0	78.3 ± 0.10	53.8 ± 0.16	42 ± 0.81			
CC1=C(/C=C/C(C)=C/C=C/C(C)=C/C(=O)O)C(C)(C)CCC1 [Retinoic acid, retinoic acid, reference compound]											157.5 ± 0.13	153.1 ± 0.14% and 100.0 ± 0.36%	103.8 ± 2.1
CC/C=C\C/C=C\C/C=C\CCCCCCCC(=O)O [α-Linolenic acid, α-linolenic acid]	105.0 ± 0.06	110.5 ± 0.02	116.3 ± 0.26	97.8 ± 3.6	96.1 ± 4.4	92.1 ± 3.9	106.9 ± 1.0	72.6 ± 0.03	45.6 ± 0.51	35.7 ± 1.44			
